The text below walks through data of ChEMBL document CHEMBL3739323, “Design, synthesis, and biological evaluation of novel quinazolinyl-diaryl urea derivatives as potential anticancer agents” (Eur J Med Chem, 2016).

By IC50 is commonly meant the concentration at which inhibition is half-maximal. A low value points to higher potency.

The subject of experiment [1] is HepG2. The experiment is described as follows: Antiproliferative activity against human HepG2 cells by MTT assay. It counts as functional, cell-based. For orientation: Tetrazolium dyes change colour on reduction, which living cells bring about.
Experiment [2] in a line: Antiproliferative activity against human MGC803 cells by MTT assay. In kind it is functional, cell-based. The conditions noted are these: MGC-803.
For experiment [3], the system named is A549. The experiment is described as follows: Antiproliferative activity against human A549 cells by MTT assay. In kind it is functional, cell-based.
Experiment [4] deals with A549. Description: Cell cycle arrest in human A549 cells assessed as accumulation at S phase at 10 uM by propidium iodide staining based flow cytometric analysis (reference value: 23.41 +/- 2.19%). In kind it is functional. (In general: A flow cytometer gives signals particle by particle.)
The subject of experiment [5] is A549. The experiment is described as follows: Induction of apoptosis in human A549 cells assessed as upregulation of caspase-8 expression at 10 uM after 48 hrs by Western blot analysis. It counts as functional, cell-based.
For experiment [6], the system named is A549. Description: Cell cycle arrest in human A549 cells assessed as accumulation at G2/M phase at 10 uM by propidium iodide staining based flow cytometric analysis (reference value: 12.77 +/- 1.55%). In kind it is functional.
Experiment [7] deals with A549. The experiment is described as follows: Induction of apoptosis in human A549 cells assessed as increase in ROS production at 10 uM after 12 hrs by DCF staining based luminescence spectrometric analysis. In kind it is functional, cell-based.
Experiment [8] relates to A549. Description: Cell cycle arrest in human A549 cells assessed as accumulation at G0/G1 phase at 10 uM by propidium iodide staining based flow cytometric analysis (reference value: 63.82 +/- 2.66%). In kind it is functional.
Experiment [9] relates to A549. Description: Induction of apoptosis in human A549 cells assessed as viable cells at 10 uM after 6 hrs by Annexin-V-FITC/Propidium iodide staining based flow cytometric analysis (reference value: 95.48 +/- 2.03%). It counts as functional. The conditions noted are these: A549, 6 h, read-out: Activity.
Experiment [10] concerns A549. The experiment is described as follows: Induction of apoptosis in human A549 cells assessed as early apoptotic cells at 10 uM after 6 hrs by Annexin-V-FITC/Propidium iodide staining based flow cytometric analysis (reference value: 3.83 +/- 0.49%). In kind it is functional.
Experiment [11] relates to A549. Description: Induction of apoptosis in human A549 cells assessed as necrotic cells at 10 uM after 48 hrs by Annexin-V/Propidium iodide dual staining based flow cytometric analysis (reference value: 2.57 +/- 0.39%). It counts as functional.
In experiment [12] the test system is A549. Description: Induction of apoptosis in human A549 cells assessed as upregulation of Bax expression at 10 uM after 48 hrs by Western blot analysis. It counts as functional, cell-based. (In general: In western blotting, separated proteins are transferred to a membrane and probed.)
Experiment [13] deals with A549. Description: Induction of apoptosis in human A549 cells assessed as downregulation of Bcl-2 expression at 10 uM after 48 hrs by Western blot analysis. In kind it is functional, cell-based.
For experiment [14], the target named is RAF proto-oncogene serine/threonine-protein kinase (Homo sapiens) (UniProt P04049). The conditions noted are these: A549, 10 uM.
Description: Inhibition of C-Raf in human A549 cells at 10 uM after 48 hrs by Western blot analysis
For experiment [15], the system named is A549. Description: Induction of apoptosis in human A549 cells assessed as late apoptotic cells at 10 uM after 6 hrs by Annexin-V-FITC/Propidium iodide staining based flow cytometric analysis (reference value: 0.41 +/- 0.19%). It counts as functional.
Experiment [16] deals with A549. Description: Induction of apoptosis in human A549 cells assessed as upregulation of caspase-3 expression at 10 uM after 48 hrs by Western blot analysis. In kind it is functional, cell-based.
The test system of experiment [17] is A549. Description: Induction of apoptosis in human A549 cells assessed as viable cells at 10 uM after 48 hrs by Annexin-V-FITC/Propidium iodide staining based flow cytometric analysis (reference value: 92.46 +/- 4.23%). In kind it is functional. The conditions noted are these: A549, 48 h, read-out: Activity.
For experiment [18], the system named is A549. Description: Induction of apoptosis in human A549 cells assessed as early apoptotic cells at 10 uM after 48 hrs by Annexin-V/Propidium iodide dual staining based flow cytometric analysis (reference value: 3.53 +/- 0.89%). It counts as functional.
The test system of experiment [19] is A549. The experiment is described as follows: Induction of apoptosis in human A549 cells assessed as late apoptotic cells at 10 uM after 48 hrs by Annexin-V/Propidium iodide dual staining based flow cytometric analysis (reference value: 1.44 +/- 0.43%). It counts as functional.
In experiment [20] the test system is A549. The experiment is described as follows: Induction of apoptosis in human A549 cells assessed as necrotic cells at 10 uM after 6 hrs by Annexin-V-FITC/Propidium iodide staining based flow cytometric analysis (reference value: 0.28 +/- 0.09%). It counts as functional.

The source made the active and inactive calls. The rule behind the calls is not given here. A value given as a limit tells only on which side of the number the result lay.

Chain of RAF proto-oncogene serine/threonine-protein kinase (Homo sapiens) (P04049 whole entry): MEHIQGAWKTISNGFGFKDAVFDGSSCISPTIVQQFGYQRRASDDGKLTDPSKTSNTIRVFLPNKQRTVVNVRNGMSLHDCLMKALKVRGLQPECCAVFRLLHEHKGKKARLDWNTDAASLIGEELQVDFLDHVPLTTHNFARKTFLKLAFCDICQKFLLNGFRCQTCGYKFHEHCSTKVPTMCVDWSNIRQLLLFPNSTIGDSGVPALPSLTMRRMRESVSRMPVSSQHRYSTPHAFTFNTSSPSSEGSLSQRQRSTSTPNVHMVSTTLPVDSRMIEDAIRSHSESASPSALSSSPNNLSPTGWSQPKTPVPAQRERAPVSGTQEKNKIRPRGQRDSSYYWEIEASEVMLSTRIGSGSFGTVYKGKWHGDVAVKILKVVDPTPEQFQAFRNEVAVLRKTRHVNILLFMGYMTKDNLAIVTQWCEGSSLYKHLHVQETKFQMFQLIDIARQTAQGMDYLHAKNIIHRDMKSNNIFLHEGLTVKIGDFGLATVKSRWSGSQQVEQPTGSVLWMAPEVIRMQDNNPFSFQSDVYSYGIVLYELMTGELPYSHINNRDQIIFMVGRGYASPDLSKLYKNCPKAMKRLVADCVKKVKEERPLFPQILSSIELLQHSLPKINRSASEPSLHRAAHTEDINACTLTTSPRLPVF

As to `COc1cc2ncnc(NCc3cccc(NC(=O)Nc4cccc(C(F)(F)F)c4)c3)c2cc1OC`, the IC50 is 34.2 µM in experiment [1], greater than 50 µM in experiment [2] and 35.3 µM in [3].

For `COc1cc2ncnc(NCc3cccc(NC(=O)Nc4cccc(C)c4)c3)c2cc1OC`, the IC50 in [1] is 21.5 µM; in experiment [2], 44.6 µM; in experiment [3], 27.1 µM.

On to `O=C(Nc1ccccc1)Nc1cccc(CNc2ncnc3ccccc23)c1`, for which the IC50 in experiment [1] was greater than 50 µM; in experiment [2] it was 13.2 µM; in experiment [3] it was 18.4 µM.

As for `CC(C)(C)c1ccc(NC(=O)Nc2cccc(CNc3ncnc4ccccc34)c2)cc1`, the figures for the IC50 in [1], in experiment [2] and in experiment [3] were 16.9 µM, 7.47 µM and 17.9 µM, respectively.

In the case of `COc1cc2ncnc(NCc3cccc(NC(=O)Nc4ccc(Cl)cc4)c3)c2cc1OC`, the IC50 is greater than 50 µM in [1], 44.2 µM in experiment [2] and 30.4 µM in experiment [3].

Take `COc1cc2ncnc(NCc3cccc(NC(=O)Nc4ccccc4)c3)c2cc1OC`: the IC50 came to 19.7 µM in experiment [1], 10 µM in [2] and 17.1 µM in experiment [3].

Turning to `O=C(Nc1ccc(Cl)cc1)Nc1cccc(CNc2ncnc3ccccc23)c1`, the IC50 in [1] is greater than 50 µM; in experiment [2], 26.4 µM; in experiment [3], greater than 50 µM.

Consider `COc1cc2ncnc(NCc3cccc(NC(=O)Nc4ccccc4Cl)c3)c2cc1OC`, for which the IC50 was 25.5 µM in experiment [1], 30.2 µM in [2] and 15.2 µM in experiment [3].

On to `COc1cc2ncnc(NCc3cccc(NC(=O)Nc4ccc([N+](=O)[O-])cc4)c3)c2cc1OC`, for which the IC50 in [1] was 18.8 µM; in experiment [2], 8.12 µM; in experiment [3], greater than 50 µM.

On to `COc1cc2ncnc(NCc3cccc(NC(=O)Nc4ccc(C)cc4)c3)c2cc1OC`, for which the IC50 in experiment [1] is greater than 50 µM; in experiment [2], 34.2 µM; in [3] it was 12.9 µM.

As to `O=C(Nc1cccc(CNc2ncnc3ccccc23)c1)Nc1ccccc1Cl`, the IC50 was greater than 50 µM in [1], greater than 50 µM in experiment [2] and 18 µM in [3].

Turning to `COc1cc2ncnc(NCc3cccc(NC(=O)Nc4ccccc4C)c3)c2cc1OC`, the IC50 in experiment [1] is greater than 50 µM; in [2] it was greater than 50 µM; in experiment [3], 21.4 µM.

`CNC(=O)c1cc(Oc2ccc(NC(=O)Nc3ccc(Cl)c(C(F)(F)F)c3)cc2)ccn1` [SORAFENIB]: the Activity in experiment [4] was determined as 5.79%; in experiment [6], 3.93%; in [8], 90.27%; in [10], 9.33%; in experiment [11], 19.9%; in experiment [15], 6.23%. The results for the Activity in experiment [18], in experiment [19] and in experiment [20] were 0.9%, 6.38% and 0.7%, respectively. For the same compound, the IC50 in experiment [1] was found to be 9.14 µM; in experiment [2] it was 7.99 µM; in [3] it was 13.6 µM. Besides, the result in experiment [5], in [7], in [12], in experiment [13] and in [16] was Active. The viability at 10 µM in experiment [9] is 83.7%; in experiment [17], 72.8%. Moreover, the inhibition entry in [14] was “Active”.

As to `COC(=O)c1ccccc1NC(=O)Nc1cccc(CNc2ncnc3ccccc23)c1`, the 50% inhibitory concentration (IC50) in [1] is greater than 50 µM; in experiment [2], 9.63 µM; in experiment [3], 29.4 µM.

As to `COc1cc2ncnc(NCc3cccc(NC(=O)Nc4ccc(F)cc4)c3)c2cc1OC`, the IC50 in [1] worked out at 36.6 µM; in experiment [2] it was 42.1 µM; in [3], 16.9 µM.

`COc1cc2ncnc(NCc3cccc(NC(=O)Nc4cccc(Cl)c4)c3)c2cc1OC`: the IC50 is 35.9 µM in experiment [1], greater than 50 µM in experiment [2] and 22.7 µM in [3].

For `COc1ccccc1NC(=O)Nc1cccc(CNc2ncnc3ccccc23)c1`, the values for the IC50 in [1], in experiment [2] and in experiment [3] were 17.4 µM, 39.3 µM and 30.8 µM, respectively.

As to `O=C(Nc1cccc(CNc2ncnc3ccccc23)c1)Nc1ccccc1F`, the IC50 came out at 17.5 µM in experiment [1], 33.4 µM in experiment [2] and 26.1 µM in [3].

Take `COc1ccc(NC(=O)Nc2cccc(CNc3ncnc4cc(OC)c(OC)cc34)c2)cc1`: the IC50 in experiment [1] was greater than 50 µM; in experiment [2] it was 12.3 µM; in experiment [3] it was 24.5 µM.

As for `Cc1cccc(NC(=O)Nc2cccc(CNc3ncnc4ccccc34)c2)c1`, the figures for the IC50 in [1], in experiment [2] and in [3] were greater than 50 µM, 30.2 µM and 30.2 µM, respectively.

On to `COc1ccccc1NC(=O)Nc1cccc(CNc2ncnc3cc(OC)c(OC)cc23)c1`, for which the results for the IC50 in experiment [1], in [2] and in experiment [3] were 27.2 µM, 7.71 µM and 15.2 µM, respectively.

For `O=C(Nc1cccc(Cl)c1)Nc1cccc(CNc2ncnc3ccccc23)c1`, the IC50 was greater than 50 µM in experiment [1], 19.2 µM in experiment [2] and greater than 50 µM in experiment [3].

As to `O=C(Nc1cccc(CNc2ncnc3ccccc23)c1)Nc1cccc(C(F)(F)F)c1`, the values for the IC50 in [1], in [2] and in [3] were 40 µM, greater than 50 µM and 44.2 µM, respectively.

In the case of `COc1cc2ncnc(NCc3cccc(NC(=O)Nc4ccccc4F)c3)c2cc1OC`, the IC50 is 24.9 µM in [1], 10.3 µM in experiment [2] and 23.8 µM in experiment [3].

For `COc1ccc(NC(=O)Nc2cccc(CNc3ncnc4ccccc34)c2)cc1`, the IC50 in [1] was greater than 50 µM; in experiment [2], 27.3 µM; in experiment [3] it was 29.3 µM.

Turning to `COC(=O)c1ccccc1NC(=O)Nc1cccc(CNc2ncnc3cc(OC)c(OC)cc23)c1`, the figures for the IC50 in [1], in experiment [2] and in experiment [3] were 31.6 µM, 8.98 µM and 29.3 µM, respectively.

Consider `O=C(Nc1ccc([N+](=O)[O-])cc1)Nc1cccc(CNc2ncnc3ccccc23)c1`, for which the IC50 in experiment [1] is 24.6 µM; in experiment [2], 9.42 µM; in [3] it was greater than 50 µM.

As to `Cc1ccccc1NC(=O)Nc1cccc(CNc2ncnc3ccccc23)c1`, the results for the IC50 in experiment [1], in experiment [2] and in experiment [3] were greater than 50 µM, greater than 50 µM and 40.2 µM, respectively.

`O=C(Nc1ccc(F)cc1)Nc1cccc(CNc2ncnc3ccccc23)c1`: the IC50 in [1] is 41.5 µM; in experiment [2], 44.3 µM; in experiment [3], 21 µM.

As for `Cc1ccc(NC(=O)Nc2cccc(CNc3ncnc4ccccc34)c2)cc1`, the IC50 in [1] is greater than 50 µM; in [2] it was 31.2 µM; in experiment [3], 24.9 µM.

On to `COc1cc2ncnc(Nc3ccc(F)c(Cl)c3)c2cc1OCCCN1CCOCC1` [GEFITINIB], for which the Activity is on record as 3.61% in [4]; 4.04% in [6]; 92.35% in [8]; 5.81% in experiment [10]; 11% in [11]; 5.27% in experiment [15]. The Activity in experiment [18] worked out at 1%; in experiment [19] it was 4.92%; in [20] it was 0.94%. Moreover, the outcome in experiment [5], in [7] and in experiment [16] was Active. The values for the viability at 10 µM in experiment [9] and in experiment [17] were 88% and 83.1%, respectively.
